Values quoted from earlier work in patent publication US11020390B2, “Bioequivalent pharmaceutical composition of vortioxetine hydrobromide” (UNICHEM LABORATORIES LTD, priority 2017, dated 2021).

Question: For `Br.Cc1ccc(Sc2ccccc2N2CCNCC2)c(C)c1` [vortioxetine hydrobromide, 1-[2-(2,4-Dimethyl-phenylsulfanyl)-phenyl]-piperazine, hydrobromide], which solubility in water is on record?
Answer: relatively poor
